Experimental data from US7183267B2, “β-lactamase inhibitors and methods of use thereof” (priority 2003, dated 2007).
≈ marks a conversion by molar mass, not a printed value.

Legend:
Format in all cases: cell-based
[1] = tested on: methicillin sensitive S. aureus ATCC 25923 (MSSA); assay: MIC assay, broth microdilution, MSSA; settings: Staphylococcus aureus, 24 h
Protocol: (3) methicillin sensitive S. aureus ATCC 25923 (MSSA). This strain was obtained from ATCC and was used as a control.
(§1) The strains were processed according to procedures recommended by ATCC, or procedures that are routinely used. Single colonies of each organism were picked for purification to generate pure working cultures. Prior to each experiment each strain was subcultured on a fresh Mueller-Hinton agar plate (MHA).
(§2) Inocula for the MIC assays were prepared by transferring a tiny portion of one colony from a MHA plate to 2 ml of Mueller-Hinton broth (MHB) such that the estimated cell density was about 10^7 colony forming unit (CFU)/ml. This cell suspension was then further diluted 10-fold (to 10^6 CFU/ml) by transferring the 2 ml cell suspension to 18 ml of MHB. Addition of 50 μl of this dilute cell suspension to 50 μl of growth medium yielded the desired cell density, namely about 5×10^4 CFU/well, or 5×10^5 CFU/ml.
(§3) The MIC value of oxacillin was determined using the broth microdilution procedure recommended by the National Committee of Clinical Laboratory Standards (NCCLS, 2000).
(§4) The MIC experiments were performed in duplicate in 96-well microtiter plates using MHB. A stock solution of 2.6 mg/0.5 ml was prepared in dimethylsulfoxide (DMSO). A total of 8 two-fold serial dilutions were made with DMSO. Initial oxacillin doses used were (μg/ml): 64, 32, 16, 8, 4, 2, 1, and 0.5. Doses were adjusted in the confirmatory experiment, if needed, in order to establish an actual MIC value.
(§5) To each well of a 96 well microtiter plate was added 47.5 μl of MHB. A volume of 2.5 μl of each dilution of oxacillin was then transferred to appropriate wells containing the medium. All wells, except the sterility control wells, were then inoculated with 50 μl of a diluted cell suspension to give a final volume of 100 μl and a final cell density of 5×10^4 CFU/well. The volume in the sterility control wells was adjusted to 100 μl with MHB. A sterile pipette tip was used to mix the contents of each well (one tip was used going from the low to the high concentration in the same column). The microtiter plates were covered with the lids and were placed in large Stratagene Big Blue plates (Cat. # 400041). Four large kimwipes moistened with tap water were placed near the edges of the Stratagene plates to prevent evaporation of the medium. The microtiter plates were incubated for at least 24 hours at 35° C. The plates were then evaluated for growth in each well. Controls included: medium sterility and negative control (medium and bacteria only).
(§6) The procedure used to determine the antimicrobial activity of the compounds of the present invention was identical to the broth microdilution procedure described above with the exception of the preparation of the stock solutions. Stock solution at concentration of 40.96 mg/0.5 ml was prepared in DMSO for each of the compounds. A total of 8 two-fold dilutions were then made in DMSO. A volume of 2.5 μl of each dilution was delivered to appropriate wells. The initial doses used were (μg/ml): 512, 256, 128, 64, 32, 16, 8, and 4.
(§7) A numerical code was used to evaluate the extent of growth as indicated below. • 0: absence of growth • 1: barely visible (faint) growth • 2: fair growth but less than the negative solvent control • 3: growth is equivalent to the negative solvent control.
(§8) The lowest dose at which no visible growth is observed was determined to be the MIC value.
(§9) MIC assays were performed with oxacillin and the four compounds. Each of the compounds was tested at the following 8 doses (μg/ml): 512, 256, 128, 64, 32, 16, 8, and 4. Oxacillin was tested at the following 8 doses (μg/ml): 64, 32, 16, 8, 4, 2, 1, and 0.5.

[2] = tested on: methicillin resistant S. aureus ATCC 33591 (MRSA-ATCC); assay: Matrix system: oxacillin plus β-lactamase inhibitor, MRSA-ATCC; settings: for MIC of oxacillin: matrix study
Protocol: as §5, §7, §8
The effect of the four compounds of the present invention on oxacillin resistance of the MRSA strains was determined using a matrix system. The β-lactamase inhibitors were tested at 5 doses against up to eleven concentrations of oxacillin. […] A 96-well microtiter plate was used for the matrix system. The procedure was identical to that described above for the MIC determination, with the exception that both oxacillin and one each of the β-lactamase inhibitors was added, 2.5 μl each, to the wells prior to addition of the test organisms.
Matrix Study:Oxacillin and Compound FL201 with MRSA-ATCC
Matrix Study: Oxacillin and Compound Fl202 with MRSA-ATCC

[3] = tested on: methicillin resistant S. aureus ATCC 33591 (MRSA-ATCC); assay: MIC assay, broth microdilution, MRSA-ATCC; settings: Staphylococcus aureus, 24 h
Protocol: (1) methicillin resistant S. aureus ATCC 33591 (MRSA-ATCC). This strain was obtained from American Type Culture Collection (ATCC), Manassas, Md.;
as §1, §2, §3, §4, §5, §6, §7, §8, §9

O=C(OCc1ccccc1)c1cc(B(O)O)cc([N+](=O)[O-])c1 [Compound F1201]
MIC [1]: 32 µg/mL (≈ 106 µM) | MIC of oxacillin ([2]; with compound 1 μg/ml): 16 µg/mL | MIC of oxacillin ([2]; with compound 2 μg/ml): 2 µg/mL | MIC of oxacillin ([2]; with compound 4 μg/ml): 0.5 µg/mL | MIC of oxacillin ([2]; with compound 8 μg/ml): <0.064 µg/mL | extent of growth (numerical code) ([2]; oxacillin 0 μg/ml + compound 1 μg/ml): 3 | extent of growth (numerical code) ([2]; oxacillin 0 μg/ml + compound 2 μg/ml): 3 | extent of growth (numerical code) ([2]; oxacillin 0 μg/ml + compound 4 μg/ml): 2 | extent of growth (numerical code) ([2]; oxacillin 0 μg/ml + compound 8 μg/ml): 1 | extent of growth (numerical code) ([2]; oxacillin 0 μg/ml + compound 16 μg/ml): 0 | extent of growth (numerical code) ([2]; oxacillin 0.064 μg/ml + compound 1 μg/ml): 1 | extent of growth (numerical code) ([2]; oxacillin 0.064 μg/ml + compound 2 μg/ml): 1 | extent of growth (numerical code) ([2]; oxacillin 0.064 μg/ml + compound 4 μg/ml): 1 | extent of growth (numerical code) ([2]; oxacillin 0.064 μg/ml + compound 8 μg/ml): 0 | extent of growth (numerical code) ([2]; oxacillin 0.064 μg/ml + compound 16 μg/ml): 0 | extent of growth (numerical code) ([2]; oxacillin 0.125 μg/ml + compound 1 μg/ml): 1 | extent of growth (numerical code) ([2]; oxacillin 0.125 μg/ml + compound 2 μg/ml): 1 | extent of growth (numerical code) ([2]; oxacillin 0.125 μg/ml + compound 4 μg/ml): 1 | extent of growth (numerical code) ([2]; oxacillin 0.125 μg/ml + compound 8 μg/ml): 0 | extent of growth (numerical code) ([2]; oxacillin 0.125 μg/ml + compound 16 μg/ml): 0 | extent of growth (numerical code) ([2]; oxacillin 0.25 μg/ml + compound 1 μg/ml): 1 | extent of growth (numerical code) ([2]; oxacillin 0.25 μg/ml + compound 2 μg/ml): 1 | extent of growth (numerical code) ([2]; oxacillin 0.25 μg/ml + compound 4 μg/ml): 1 | extent of growth (numerical code) ([2]; oxacillin 0.25 μg/ml + compound 8 μg/ml): 0 | extent of growth (numerical code) ([2]; oxacillin 0.25 μg/ml + compound 16 μg/ml): 0 | extent of growth (numerical code) ([2]; oxacillin 0.5 μg/ml + compound 1 μg/ml): 1 | extent of growth (numerical code) ([2]; oxacillin 0.5 μg/ml + compound 2 μg/ml): 1 | extent of growth (numerical code) ([2]; oxacillin 0.5 μg/ml + compound 4 μg/ml): 0 | extent of growth (numerical code) ([2]; oxacillin 0.5 μg/ml + compound 8 μg/ml): 0 | extent of growth (numerical code) ([2]; oxacillin 0.5 μg/ml + compound 16 μg/ml): 0 | extent of growth (numerical code) ([2]; oxacillin 1 μg/ml + compound 1 μg/ml): 1 | extent of growth (numerical code) ([2]; oxacillin 1 μg/ml + compound 2 μg/ml): 1 | extent of growth (numerical code) ([2]; oxacillin 1 μg/ml + compound 4 μg/ml): 0 | extent of growth (numerical code) ([2]; oxacillin 1 μg/ml + compound 8 μg/ml): 0 | extent of growth (numerical code) ([2]; oxacillin 1 μg/ml + compound 16 μg/ml): 0 | extent of growth (numerical code) ([2]; oxacillin 2 μg/ml + compound 1 μg/ml): 1 | extent of growth (numerical code) ([2]; oxacillin 2 μg/ml + compound 2 μg/ml): 0 | extent of growth (numerical code) ([2]; oxacillin 2 μg/ml + compound 4 μg/ml): 0 | extent of growth (numerical code) ([2]; oxacillin 2 μg/ml + compound 8 μg/ml): 0 | extent of growth (numerical code) ([2]; oxacillin 2 μg/ml + compound 16 μg/ml): 0 | extent of growth (numerical code) ([2]; oxacillin 4 μg/ml + compound 1 μg/ml): 1 | extent of growth (numerical code) ([2]; oxacillin 4 μg/ml + compound 2 μg/ml): 0 | extent of growth (numerical code) ([2]; oxacillin 4 μg/ml + compound 4 μg/ml): 0 | extent of growth (numerical code) ([2]; oxacillin 4 μg/ml + compound 8 μg/ml): 0 | extent of growth (numerical code) ([2]; oxacillin 4 μg/ml + compound 16 μg/ml): 0 | extent of growth (numerical code) ([2]; oxacillin 8 μg/ml + compound 1 μg/ml): 1 | extent of growth (numerical code) ([2]; oxacillin 8 μg/ml + compound 2 μg/ml): 0 | extent of growth (numerical code) ([2]; oxacillin 8 μg/ml + compound 4 μg/ml): 0 | extent of growth (numerical code) ([2]; oxacillin 8 μg/ml + compound 8 μg/ml): 0 | extent of growth (numerical code) ([2]; oxacillin 8 μg/ml + compound 16 μg/ml): 0 | extent of growth (numerical code) ([2]; oxacillin 16 μg/ml + compound 1 μg/ml): 0 | extent of growth (numerical code) ([2]; oxacillin 16 μg/ml + compound 2 μg/ml): 0 | extent of growth (numerical code) ([2]; oxacillin 16 μg/ml + compound 4 μg/ml): 0 | extent of growth (numerical code) ([2]; oxacillin 16 μg/ml + compound 8 μg/ml): 0 | extent of growth (numerical code) ([2]; oxacillin 16 μg/ml + compound 16 μg/ml): 0 | extent of growth (numerical code) ([2]; oxacillin 32 μg/ml + compound 1 μg/ml): 0 | extent of growth (numerical code) ([2]; oxacillin 32 μg/ml + compound 2 μg/ml): 0 | extent of growth (numerical code) ([2]; oxacillin 32 μg/ml + compound 4 μg/ml): 0 | extent of growth (numerical code) ([2]; oxacillin 32 μg/ml + compound 8 μg/ml): 0 | extent of growth (numerical code) ([2]; oxacillin 32 μg/ml + compound 16 μg/ml): 0 | extent of growth (numerical code) ([2]; oxacillin 64 μg/ml + compound 1 μg/ml): 0 | extent of growth (numerical code) ([2]; oxacillin 64 μg/ml + compound 2 μg/ml): 0 | extent of growth (numerical code) ([2]; oxacillin 64 μg/ml + compound 4 μg/ml): 0 | extent of growth (numerical code) ([2]; oxacillin 64 μg/ml + compound 8 μg/ml): 0 | extent of growth (numerical code) ([2]; oxacillin 64 μg/ml + compound 16 μg/ml): 0 | MIC [3]: 32 µg/mL (≈ 106 µM)
